# Laboratory results: patent US8648092B2, “Imidazo[1,2-a]pyridine derivatives: preparation and pharmaceutical applications” (MEI Pharma, priority 2005, dated 2014)
# What was measured:
# Colo205 cells = test: Cell-based proliferation assay for determination of GI50 values (CyQUANT); parameters: species or system human
# Outline: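 Colo205 cells in RPMI 1640 with 5% FBS, seeded 5000/well and grown 24 h at 37 °C. Exposure to compound lasted 96 h, with growth read by CyQUANT. GI50 = concentration giving 50% growth inhibition, from dose-response curves.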
# [1] = biological target: HDAC1 enzyme (recombinant GST-HDAC1) (Homo sapiens (Human), UniProt Q13547); test: In vitro HDAC assay for determination of IC50 values (BIOMOL fluorescent-based HDAC activity assay); assay type: biochemical; conditions: Flur de lys substrate, 2 h room temperature, read-out: IC50 (HDAC 1)
# HDAC1 enzyme (recombinant GST-HDAC1), sequence (Q13547 whole entry): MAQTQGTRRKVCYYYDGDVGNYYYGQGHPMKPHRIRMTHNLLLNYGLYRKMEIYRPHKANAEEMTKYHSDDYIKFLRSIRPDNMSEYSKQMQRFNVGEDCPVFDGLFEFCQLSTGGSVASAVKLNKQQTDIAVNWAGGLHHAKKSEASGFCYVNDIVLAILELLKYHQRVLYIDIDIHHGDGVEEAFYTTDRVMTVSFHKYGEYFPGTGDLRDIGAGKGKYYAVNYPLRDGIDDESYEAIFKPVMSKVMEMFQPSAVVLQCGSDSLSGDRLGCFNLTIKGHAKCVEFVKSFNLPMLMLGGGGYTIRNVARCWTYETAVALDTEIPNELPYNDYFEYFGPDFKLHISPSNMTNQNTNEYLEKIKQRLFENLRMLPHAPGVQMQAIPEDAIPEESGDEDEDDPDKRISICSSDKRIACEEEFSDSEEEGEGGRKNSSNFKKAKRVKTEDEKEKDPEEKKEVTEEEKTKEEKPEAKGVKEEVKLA
# Outline: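 Recombinant human GST-HDAC1, baculovirus-expressed in SF9 cells and glutathione-purified, tested with a fluorogenic deacetylase substrate; Fluor de Lys developer added for 10 min. Fluorescence at 360 nm excitation/460 nm emission; IC50 fitted from a concentration series.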
# [2] = Homo sapiens, COLO 205, 96 h treatment
SMILES,GI50 (Colo205 cells; [2]),IC50 [1],GI50 (Colo205 cells; 96 h treatment)
"CCCCc1nc2cc(/C=C/C(=O)NO)ccn2c1CN(CCC)CCCC [Compound 78, 3-{2-Butyl-3-[(butyl-propyl-amino)-methyl]-imidazo[1,2-a]pyridin-7-yl}-N-hydroxy-acrylamide]",0.58 µM,0.09 µM,
"CCCCNCc1c(-c2ccccc2)nc2ccc(/C=C/C(=O)NO)cn12 [Compound 66, 3-(3-Butylaminomethyl-2-phenyl-imidazo[1,2-a]pyridin-6-yl)-N-hydroxy-acrylamide]",55 µM,> 10 µM,
"COc1cc(Nc2c(CCc3ccccc3)nc3ccc(/C=C/C(=O)NO)cn23)cc(OC)c1OC [Compound 1, N-Hydroxy-3-[2-phenethyl-3-(3,4,5-trimethoxy-phenylamino)-imidazo[1,2-a]pyridin-6-yl]-acrylamide]",2.1 µM,0.15 µM,
"CCCCc1nc2cc(/C=C/C(=O)NO)ccn2c1CN(CC)CCC(C)CC(C)(C)C (stereo not drawn) [Compound 119, 3-(2-Butyl-3-{[ethyl-(3,55-trimethyl-hexyl)-amino]-methyl}-imidazo[1,2-a]pyridin-7-yl)-N-hydroxy-acrylamide]",0.53 µM,0.2 µM,
"CCCCCCN(CC)Cc1c(C(C)(C)C)nc2cc(/C=C/C(=O)NO)ccn12 [Compound 90, 3-{2-tert-Butyl-3-[(ethyl-hexyl-amino)-methyl]-imidazo[1,2-a]pyridin-7-yl}-N-hydroxy-acrylamide]",2 µM,0.24 µM,
"CCCCNCc1c(C)nc2cc(/C=C/C(=O)NO)ccn12 [Compound 42, 3-(3-Butylaminomethyl-2-methyl-imidazo[1,2-a]pyridin-7-yl)-N-hydroxy-acrylamide]",1.5 µM,0.16 µM,
"CCCCCCc1nc2cc(/C=C/C(=O)NO)ccn2c1NCCC(=O)N(C)CCN(C)C [Compound 32, 3-(3-{2-[(2-Dimethylamino-ethyl)-methyl-carbamoyl]-ethylamino}-2-hexyl-imidazo[1,2a]pyridin-7-yl)-N-hydroxy-acrylamide]",2.8 µM,0.24 µM,
"CCC(CC)CN(CC)Cc1c(C(C)(C)C)nc2cc(/C=C/C(=O)NO)ccn12 [Compound 93, 3-(2-tert-Butyl-3-{[ethyl-(2-ethyl-butyl)-amino]-methyl}-imidazo[1,2-a]pyridin-7-yl)-N-hydroxy-acrylamide]",0.97 µM,0.19 µM,
"CCCCCCc1nc2cc(/C=C/C(=O)NO)ccn2c1NCCC(=O)N(C)C [Compound 30, 3-[3-(2-Dimethylcarbamoyl-ethylamino)-2-hexyl-imidazo[1,2-a]pyridin-7-yl]-N-hydroxy-acrylamide]",3.9 µM,0.88 µM,
"CCCCCCc1nc2cc(C=CC(=O)NO)ccn2c1NCCC(=O)NC(C)(C)C [Compound 22, 3-[3-(2-tert-Butylcarbamoyl-ethylamino)-2-hexyl-imidazo[1,2-a]pyridin-7-yl]-N-hydroxy-acrylamide]",19 µM,0.14 µM,
"CCCCN(CC)Cc1c(-c2ccccc2)nc2cc(/C=C/C(=O)NO)ccn12 [Compound 120, 3-{3-[(Butyl-ethylamino)-methyl]-2-phenyl-imidazo[1,2-a]pyridin-7-yl}-N-hydroxy-acrylamide]",0.68 µM,0.04 µM,
"CC(C)(C)NCc1c(-c2ccccc2)nc2ccc(/C=C/C(=O)NO)cn12 [Compound 65, 3-[3-(tert-Butylamino-methyl)-2-phenyl-imidazo[1,2-a]pyridin-6-yl]-N-hydroxy-acrylamide]",62 µM,> 10 µM,
"O=C(C=Cc1ccc2nc(CCc3ccccc3)c(NCc3ccc4c(c3)OCO4)n2c1)NO [Compound 2, 3-{3-[(Benzo[1,3]-dioxol-5-ylmethyl)-amino]-2-phenethyl-imidazo[1,2-a]pyridin-6-yl}-N-hydroxyacrylamide]",3.9 µM,0.72 µM,
"CC1CN(Cc2c(-c3ccccc3)nc3cc(/C=C/C(=O)NO)ccn23)CC(C)O1 (stereo not drawn) [Compound 55, 3-[3-(2,6-Dimethyl-morpholin-4-ylmethyl)-2-phenyl-imidazo[1,2-a]pyridin-7-yl]-N-hydroxy-acrylamide]",9.3 µM,2.4 µM,
"CCCN(CC)Cc1c(C(C)(C)C)nc2cc(/C=C/C(=O)NO)ccn12 [Compound 82, 3-{2-tert-Butyl-3-[(ethyl-propyl-amino)-methyl]-imidazo[1,2-a]pyridin-7-yl}-N hydroxy-acrylamide]",1.8 µM,0.27 µM,
"CCCCc1nc2cc(/C=C/C(=O)NO)ccn2c1CN(CC)CCC(C)C [Compound 114, 3-(2-Butyl-3-{[ethyl-(3-methyl-butyl)-amino]-methyl}-imidazo[1,2-a]pyridin-7-yl)-N-hydroxy-acrylamide]",0.09 µM,0.02 µM,
"CCCCc1nc2cc(/C=C/C(=O)NO)ccn2c1CN(CCC)CCC [Compound 74, 3-(2-Butyl-3-dipropylaminomethyl-imidazo[1,2-a]pyridin-7-yl)-N-hydroxy-acrylamide]",0.61 µM,0.2 µM,

SMILES,GI50 (Colo205 cells; [2]),IC50 [1],GI50 (Colo205 cells; 96 h treatment)
"CCCCc1nc2cc(/C=C/C(=O)NO)ccn2c1CN(CC)CC [Compound 75, 3-(2-Butyl-3-diethylaminomethyl-imidazo[1,2-a]pyridin-7-yl)-N-hydroxy-acrylamide]",0.68 µM,0.18 µM,
"CCN(Cc1c(C(C)(C)C)nc2cc(/C=C/C(=O)NO)ccn12)CC(C)C [Compound 86, 3-{2-tert-Butyl-3-[(ethyl-isobutyl-amino)-methyl]-imidazo[1,2-a]pyridin-7-yl}-N-hydroxy-acrylamide]",3.9 µM,0.57 µM,
"CCCC(C)CN(CC)Cc1c(C(C)(C)C)nc2cc(/C=C/C(=O)NO)ccn12 (stereo not drawn) [Compound 91, 3-(2-tert-Butyl-3-{[ethyl-(2-methyl-pentyl)-amino]-methyl}-imidazo[1,2-a]pyridin-7-yl)-N-hydroxy-acrylamide]",2.1 µM,0.47 µM,
"CCN(Cc1c(C)nc2cc(C=CC(=O)NO)ccn12)CC(C)(C)C [Compound 111, 3-(3-{[(2,2-Dimethyl-propyl)-ethyl-amino]-methyl}-2-methyl-imidazo[1,2a]pyridin-7-yl)-N-hydroxy-acrylamide]",,0.05 µM,0.6 µM
"CCCCc1nc2cc(/C=C/C(=O)NO)ccn2c1CN(CC)CC(C)CCC (stereo not drawn) [Compound 116, 3-(2-Butyl-3-{[ethyl-(2-methyl-pentyl)-amino]-methyl}-imidazo[1,2-a]pyridin-7-yl)-N-hydroxy-acrylamide]",,0.08 µM,0.49 µM
"CCCCc1nc2cc(/C=C/C(=O)NO)ccn2c1CN(CC)CCCC [Compound 77, 3-{2-Butyl-3-[(butyl-ethyl-amino)-methyl]-imidazo[1,2-a]pyridin-7-yl}-N-hydroxy-acrylamide]",0.16 µM,0.06 µM,
"CCCCCCc1nc2cc(/C=C/C(=O)NO)ccn2c1NCCC(=O)NCC [Compound 29, 3-[3-(2-Ethylcarbamoyl-ethylamino)-2-hexyl-imidazo[1,2-a]pyridin-7-yl]-N-hydroxy-acrylamide]",2.1 µM,0.38 µM,
"O=C(/C=C/c1ccn2c(CNC3CC3)c(-c3ccccc3)nc2c1)NO [Compound 62, 3-(3-Cyclopropylaminomethyl-2-phenyl-imidazo[1,2-a]pyridin-7-yl)-N-hydroxy-acrylamide]",2.5 µM,0.31 µM,
"CCCCCCc1nc2ccc(/C=C/C(=O)NO)cn2c1NCCC(=O)NCCN(C)C [Compound 19, (E)-3-(3-(3-(2-(dimethylamino)ethylamino)-3-oxopropylamino)-2-hexylimidazo[1,2-a]pyridin-6-yl)-N-hydroxyacrylamide]",24 µM,0.78 µM,
"CCCCc1nc2cc(/C=C/C(=O)NO)ccn2c1CN(CC)CC(C)(C)C [Compound 115, 3-(2-Butyl-3-{[(2,2-dimethyl-propyl)-ethyl-amino]-methyl}-imidazo[1,2-a]pyridin-7-yl)-N-hydroxy-acrylamide]",0.95 µM,0.16 µM,
"CCN(Cc1c(C(C)(C)C)nc2cc(/C=C/C(=O)NO)ccn12)CC1CC1 [Compound 97, 3-{2-tert-Butyl-3-[(cyclopropylmethyl-ethyl-amino)-methyl]-imidazo[1,2-a]pyridin-7-yl}-N-hydroxy-acrylamide]",2.1 µM,0.33 µM,
"CCCCc1nc2cc(/C=C/C(=O)NO)ccn2c1CN(CC)CC(CC)CC [Compound 118, 3-(2-Butyl-3-{[ethyl-(2-ethyl-butyl)-amino]-methyl}-imidazo[1,2-a]pyridin-7-yl)-N-hydroxy-acrylamide]",0.39 µM,0.15 µM,
"CCc1nc2ccc(/C=C/C(=O)NO)cn2c1NCCOC [Compound 11, 3-[2-Ethyl-3-(2-methoxy-ethylamino)-imidazo[1,2-a]pyridin-6-yl]-N-hydroxy-acrylamide]",> 10 µM,6 µM,
"O=C(/C=C/c1ccn2c(CNCC(F)(F)F)c(-c3ccccc3)nc2c1)NO [Compound 46, N-Hydroxy-3-{2-phenyl-3-[(2,2,2-trifluoro-ethylamino)-methyl]-imidazo[1,2-a]pyridin-7-yl}-acrylamide]",11 µM,> 10 µM,
"CCN(CC)Cc1c(-c2ccccc2)nc2ccc(/C=C/C(=O)NO)cn12 [Compound 103, 3-(3-Diethylaminomethyl-2-phenyl-imidazo[1,2a]pyridin-6-yl)-N-hydroxy-acrylamide]",41 µM,> 10 µM,
"C#CCNC(=O)CCNc1c(CCCCCC)nc2cc(/C=C/C(=O)NO)ccn12 [Compound 26, 3-[2-Hexyl-3-(2-prop-2-ynylcarbamoyl-ethylamino)-imidazo[1,2-a]pyridin-7-yl]-N-hydroxy-acrylamide]",7.9 µM,0.14 µM,
